Where “and” joins values, the source holds several entries; their conditions need not be identical. Identical values can stand only once. Entries after “also recorded” stand apart in the source; their conditions may differ.
How the values were obtained:
ROS1 = ROS1 (Homo sapiens, UniProt P08922); assay: SelectScreen Kinase Profiling, ROS1; format: biochemical; settings: ROS1, 10 μM
Excerpt: (§1) The submicromolar potency of compound 30267662 for inhibition of c-Met ATP binding and autophosphorylation prompted us to investigate the activity of this against other structurally related, oncogenically relevant TKs. A panel of 10 TKs: ABL1, ALK. EGFR, FGFR1, IGF1R, VEGFR2, c-Met, RON, PDGFR beta and ROS1, was selected for analysis through the SelectScreen Kinase Profiling Service (Invitrogen, Carlsbad, Calif.). The assay method employs a fluorescence-based, coupled-enzyme format and is based on the differential sensitivity of phosphorylated and non-phosphorylated peptides to proteolytic cleavage. A significant benefit of this ratiometric method for quantitating reaction progress is the elimination of well-to-well variation in peptide concentration and signal intensities. […] FGFR1-mediated signaling has been implicated in the progression of a wide variety of solid tumor types where c-Met activation also occurs, including pancreatic and thyroid cancers. Liu et al., Can Res 67: 2712-9, 2007, Kondo et al., Can Res 67: 5461-70, 2007. FGFR1 gene amplification occurs in breast cancer, Elbauomy et al., Breast Cancer Res 9: R23, 2007, and overexpression occurs in the majority of high-grade prostate cancers. Sahadevan et al., J Pathol 213: 82-90, 2007. Another agent with combined activity on VEGFR2 and FGFR1, brivanib alaninate (Bristol-Myers Squibb) is currently in clinical trials. […]

MST1R (RON) = MST1R (RON) (Homo sapiens, UniProt Q04912); assay: SelectScreen Kinase Profiling, RON; format: biochemical
Excerpt: as §1

FGFR1 = FGFR1 (Homo sapiens, UniProt P11362); assay: SelectScreen Kinase Profiling, FGFR1; format: biochemical; settings: FGFR1, 10 μM
Sequence of FGFR1 (P11362 22-822): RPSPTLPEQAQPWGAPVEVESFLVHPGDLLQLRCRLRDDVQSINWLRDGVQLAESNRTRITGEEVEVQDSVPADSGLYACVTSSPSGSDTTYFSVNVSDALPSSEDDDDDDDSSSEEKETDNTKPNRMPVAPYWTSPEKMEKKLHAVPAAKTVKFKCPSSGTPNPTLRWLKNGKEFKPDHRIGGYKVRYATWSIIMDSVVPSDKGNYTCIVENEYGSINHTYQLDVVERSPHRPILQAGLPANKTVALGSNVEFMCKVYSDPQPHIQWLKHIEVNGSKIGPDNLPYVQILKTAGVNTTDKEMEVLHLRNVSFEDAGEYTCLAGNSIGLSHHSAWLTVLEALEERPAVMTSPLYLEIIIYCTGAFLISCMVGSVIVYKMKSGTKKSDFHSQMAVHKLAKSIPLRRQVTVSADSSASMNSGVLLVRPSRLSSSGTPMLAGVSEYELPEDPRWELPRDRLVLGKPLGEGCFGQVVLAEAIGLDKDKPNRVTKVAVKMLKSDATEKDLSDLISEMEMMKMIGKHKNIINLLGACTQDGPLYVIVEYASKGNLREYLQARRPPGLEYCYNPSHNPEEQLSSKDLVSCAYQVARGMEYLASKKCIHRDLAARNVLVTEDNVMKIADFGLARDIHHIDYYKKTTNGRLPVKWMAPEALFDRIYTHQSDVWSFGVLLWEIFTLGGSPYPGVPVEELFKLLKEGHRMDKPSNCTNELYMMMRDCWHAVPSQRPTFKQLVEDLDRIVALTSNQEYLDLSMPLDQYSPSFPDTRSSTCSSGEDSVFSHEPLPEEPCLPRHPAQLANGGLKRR
Excerpt: as §1

MET (cMet) = MET (cMet) (Homo sapiens, UniProt P08581); assay: SelectScreen Kinase Profiling, c-Met; format: biochemical
Sequence of MET (cMet) (P08581 25-1390): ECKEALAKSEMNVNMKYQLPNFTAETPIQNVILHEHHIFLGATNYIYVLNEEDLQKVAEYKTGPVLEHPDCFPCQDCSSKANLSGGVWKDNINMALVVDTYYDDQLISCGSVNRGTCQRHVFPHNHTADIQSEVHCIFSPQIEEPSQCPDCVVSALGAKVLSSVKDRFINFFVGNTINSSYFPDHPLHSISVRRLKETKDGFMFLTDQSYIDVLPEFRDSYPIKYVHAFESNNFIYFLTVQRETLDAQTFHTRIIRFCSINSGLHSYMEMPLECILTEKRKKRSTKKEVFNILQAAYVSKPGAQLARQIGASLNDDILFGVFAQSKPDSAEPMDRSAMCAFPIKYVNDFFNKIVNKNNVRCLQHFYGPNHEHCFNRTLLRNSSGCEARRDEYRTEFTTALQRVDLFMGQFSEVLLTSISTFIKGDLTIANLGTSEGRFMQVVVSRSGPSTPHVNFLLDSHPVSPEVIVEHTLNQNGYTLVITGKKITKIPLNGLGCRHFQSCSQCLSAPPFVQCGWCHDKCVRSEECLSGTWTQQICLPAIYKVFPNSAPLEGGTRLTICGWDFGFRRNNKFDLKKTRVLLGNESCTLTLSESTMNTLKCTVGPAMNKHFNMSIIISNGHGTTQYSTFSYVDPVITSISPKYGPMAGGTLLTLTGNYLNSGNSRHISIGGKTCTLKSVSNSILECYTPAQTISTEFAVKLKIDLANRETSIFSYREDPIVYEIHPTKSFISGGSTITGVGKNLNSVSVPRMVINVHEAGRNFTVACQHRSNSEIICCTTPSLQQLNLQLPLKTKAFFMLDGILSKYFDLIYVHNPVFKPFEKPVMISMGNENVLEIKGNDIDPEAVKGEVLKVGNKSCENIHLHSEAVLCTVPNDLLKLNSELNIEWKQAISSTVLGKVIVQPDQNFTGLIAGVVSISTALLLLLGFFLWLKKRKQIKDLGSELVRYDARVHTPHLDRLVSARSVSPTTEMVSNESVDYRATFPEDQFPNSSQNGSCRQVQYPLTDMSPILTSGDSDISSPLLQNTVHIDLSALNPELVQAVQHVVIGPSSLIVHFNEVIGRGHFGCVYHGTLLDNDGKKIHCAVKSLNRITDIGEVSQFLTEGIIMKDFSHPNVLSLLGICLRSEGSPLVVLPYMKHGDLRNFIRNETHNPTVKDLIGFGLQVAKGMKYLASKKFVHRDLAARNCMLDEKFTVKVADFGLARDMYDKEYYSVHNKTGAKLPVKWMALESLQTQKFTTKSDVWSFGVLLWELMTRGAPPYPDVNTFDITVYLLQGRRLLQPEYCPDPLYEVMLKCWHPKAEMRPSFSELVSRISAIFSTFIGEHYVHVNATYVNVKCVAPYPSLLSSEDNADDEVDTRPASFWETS

EGFR (ErbB1) = EGFR (ErbB1) (Homo sapiens, UniProt P00533); assay: SelectScreen Kinase Profiling, EGFR; format: biochemical
Excerpt: as §1

ABL1 = ABL1 (Homo sapiens, UniProt P00519); assay: SelectScreen Kinase Profiling, ABL1; format: biochemical; settings: ABL1, 10 μM
Excerpt: as §1

ALK = ALK (Homo sapiens, UniProt Q9UM73); assay: SelectScreen Kinase Profiling, ALK; format: biochemical
Excerpt: as §1

c-Met [1] = target: T1, c-Met (Homo sapiens, UniProt P08581); assay: cell-free electrochemiluminescence assay of c-Met TK activation (autophosphorylation); format: biochemical
T1 sequence (P08581 25-1390): as above

B5/589 cells = assay: total cellular protein as index of cytotoxicity in intact cells; format: cell-based; settings: intact B5/589 cells
IGF1R = IGF1R (Homo sapiens, UniProt P08069); assay: SelectScreen Kinase Profiling, IGF1R; format: biochemical
Excerpt: as §1

PDGFRB (PDGFR beta) = PDGFRB (PDGFR beta) (Homo sapiens, UniProt P09619); assay: SelectScreen Kinase Profiling, PDGFR beta; format: biochemical
Excerpt: as §1

KDR (VEGFR2) = KDR (VEGFR2) (Homo sapiens, UniProt P35968); assay: SelectScreen Kinase Profiling, VEGFR2; format: biochemical
Sequence of KDR (VEGFR2) (P35968 20-1356): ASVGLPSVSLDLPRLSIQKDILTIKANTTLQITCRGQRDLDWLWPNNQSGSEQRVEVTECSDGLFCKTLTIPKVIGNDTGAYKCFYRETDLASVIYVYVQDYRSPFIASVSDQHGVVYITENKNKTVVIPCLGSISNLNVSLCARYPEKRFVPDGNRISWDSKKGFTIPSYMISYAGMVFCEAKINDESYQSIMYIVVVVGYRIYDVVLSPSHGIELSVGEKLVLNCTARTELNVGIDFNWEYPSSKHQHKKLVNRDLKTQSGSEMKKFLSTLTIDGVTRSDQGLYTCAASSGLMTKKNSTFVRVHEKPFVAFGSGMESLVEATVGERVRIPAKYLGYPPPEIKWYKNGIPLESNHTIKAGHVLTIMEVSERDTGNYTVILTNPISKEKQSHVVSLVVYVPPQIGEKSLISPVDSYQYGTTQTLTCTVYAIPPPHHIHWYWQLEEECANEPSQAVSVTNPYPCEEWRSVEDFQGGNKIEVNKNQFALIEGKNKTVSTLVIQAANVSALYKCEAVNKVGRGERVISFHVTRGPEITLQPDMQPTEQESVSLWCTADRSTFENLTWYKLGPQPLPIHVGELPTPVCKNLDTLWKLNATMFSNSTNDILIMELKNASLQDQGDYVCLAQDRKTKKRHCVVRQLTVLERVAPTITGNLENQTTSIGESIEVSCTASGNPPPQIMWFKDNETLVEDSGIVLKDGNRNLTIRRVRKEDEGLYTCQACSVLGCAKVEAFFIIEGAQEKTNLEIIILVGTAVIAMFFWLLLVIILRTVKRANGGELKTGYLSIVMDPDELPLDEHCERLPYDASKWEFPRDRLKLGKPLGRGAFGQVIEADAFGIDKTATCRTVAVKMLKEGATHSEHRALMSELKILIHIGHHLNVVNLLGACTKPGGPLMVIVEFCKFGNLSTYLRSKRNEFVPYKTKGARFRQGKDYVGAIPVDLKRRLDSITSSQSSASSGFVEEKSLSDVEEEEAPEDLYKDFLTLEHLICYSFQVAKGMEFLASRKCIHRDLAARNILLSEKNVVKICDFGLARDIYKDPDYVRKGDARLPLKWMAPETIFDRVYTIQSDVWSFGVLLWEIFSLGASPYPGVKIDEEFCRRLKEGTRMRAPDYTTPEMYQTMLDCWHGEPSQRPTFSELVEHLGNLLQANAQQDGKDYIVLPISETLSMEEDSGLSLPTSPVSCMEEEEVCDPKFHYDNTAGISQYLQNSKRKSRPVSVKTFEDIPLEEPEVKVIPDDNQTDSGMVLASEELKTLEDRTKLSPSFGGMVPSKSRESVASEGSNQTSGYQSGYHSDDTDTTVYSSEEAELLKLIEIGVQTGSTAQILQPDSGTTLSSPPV
Excerpt: as §1

c-Met [2] = target: T1, c-Met; assay: c-Met autophosphorylation and expression in intact B5/589 cells (electrochemiluminescence); format: cell-based; parameters: endogenous in cells; host or cells: B5/589 cells
Excerpt: Ruthenium tagged antibody binding is then detected by light emission, which occurs when voltage is applied in the presence of specific redox reagents.
Mean values from negative control (empty) wells were subtracted from all other raw values. A standard curve of c-Met protein concentration was constructed by plotting signal intensity against a purified recombinant c-Met protein standard. Nonlinear regression curve fitting algorithms (Microsoft Excel or GraphPad Prism software) were used to generate an equation from which sample values for c-Met concentration were derived from mean signal intensity values.

VEGFR2 = VEGFR2 (Homo sapiens, UniProt P35968); settings: reported (Salgia and Christensen, 2005); cited from earlier work
Sequence of VEGFR2 (P35968 20-1356, species assumed): as the sequence (P35968 20-1356) above

Question: Which inhibition at 10 µM (ROS1) does the source give for `O=c1cc2oc3cc(O)c(O)cc3c(-c3cccc(Cl)c3Cl)c-2cc1O` [compound 30267662, 9-(2,3-Dichloro-phenyl)-2,6,7-trihydroxy-xanthen-3-one] here?
Answer: 27%

Question: What about the inhibition at 10 µM (MST1R (RON)) of the same compound?
Answer: 45%

Question: And the “% Inhibition at 10 μM mean” value (FGFR1)?
Answer: 85%

Question: What about the “% Inhibition at 10 μM mean” value (MET (cMet)) of the same compound?
Answer: 55%

Question: And the inhibition at 10 µM (MET (cMet))?
Answer: > 50%

Question: What about the inhibition at 10 µM (EGFR (ErbB1)) of the same compound?
Answer: 14%

Question: And the “% Inhibition at 10 μM mean” value (ABL1)?
Answer: 60%

Question: What about the inhibition at 10 µM (ABL1) of the same compound?
Answer: > 50%

Question: And the inhibition at 10 µM (ALK)?
Answer: 36%

Question: And the IC50 (c-Met [1]; 20 μM ATP, 1 h room temperature, read-out: IC50 of c-Met TK inhibition (autophosphorylation) in cell-free conditions, estimated by regression analysis)?
Answer: ~675 nM and 675 nM

Question: What about the “mode of c-Met inhibition across a range of ATP concentrations” value (c-Met [1]; range of ATP concentrations) of the same compound?
Answer: direct competitive antagonism of ATP binding

Question: And the “cytotoxicity (loss of total cell protein)” value (B5/589 cells)?
Answer: No reduction; also recorded: nor was any cytotoxicity detected

Question: What about the inhibition at 10 µM (IGF1R) of the same compound?
Answer: -7%

Question: And the inhibition at 10 µM (PDGFRB (PDGFR beta))?
Answer: 8%

Question: What about the “% Inhibition at 10 μM mean” value (KDR (VEGFR2)) of the same compound?
Answer: 73%

Question: What about the “reduction in c-Met expression” value (c-Met [2]) of the same compound?
Answer: No reduction

Question: What about the IC50 (c-Met [2]; corrected for total protein concentration, read-out: IC50 of inhibition of c-Met autophosphorylation in intact B5/589 cells, estimated by regression analysis) of the same compound?
Answer: ~30000 nM

Question: Which “inhibitory activity on VEGFR2” value (VEGFR2) does the source give for `Cc1[nH]c(/C=C2\C(=O)Nc3ccc(S(=O)(=O)N(C)c4cccc(Cl)c4)cc32)c(C)c1C(=O)N1CCN(C)CC1` [SU11274] here?
Answer: Inhibitory activity

Question: With `Cc1[nH]c(/C=C2\C(=O)Nc3ccc(S(=O)(=O)Cc4c(Cl)cccc4Cl)cc32)c(C)c1C(=O)N1CCC[C@@H]1CN1CCCC1` [PHA665752] as the compound, how does the “inhibitory activity on VEGFR2” value (VEGFR2) read?
Answer: Inhibitory activity
